In assay [1] the target is GDP-bound HRAS wild-type protein (Homo sapiens, UniProt P01112). Nature of the assay: Binding to HRAS by surface plasmon resonance (SPR), Single Cycle Kinetics. Conditions: KD ratio, GDP-bound HRAS wild-type vs GDP-bound KRAS wild-type, SPR. (SPR reads the build-up and loss of mass on a sensor chip optically.)
The target in assay [2] is GDP-bound NRAS wild-type protein (Homo sapiens, UniProt P01111). In words: Binding to NRAS by surface plasmon resonance (SPR), Single Cycle Kinetics. Conditions: KD ratio, GDP-bound NRAS wild-type vs GDP-bound KRAS wild-type, SPR.
Sequence of GDP-bound NRAS wild-type protein (P01111 whole entry): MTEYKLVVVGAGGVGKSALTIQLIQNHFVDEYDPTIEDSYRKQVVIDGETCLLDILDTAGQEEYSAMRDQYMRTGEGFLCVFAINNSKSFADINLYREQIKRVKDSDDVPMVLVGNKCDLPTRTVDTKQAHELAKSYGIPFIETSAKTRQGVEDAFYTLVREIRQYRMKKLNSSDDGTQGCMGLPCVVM

Sequence of GDP-bound HRAS wild-type protein (P01112 whole entry): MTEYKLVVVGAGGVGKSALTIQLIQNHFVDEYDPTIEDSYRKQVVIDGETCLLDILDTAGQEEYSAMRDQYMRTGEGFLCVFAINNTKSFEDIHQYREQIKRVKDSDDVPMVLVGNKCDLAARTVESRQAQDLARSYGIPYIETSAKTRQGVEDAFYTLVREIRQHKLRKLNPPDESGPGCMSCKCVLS

On to `CC[C@H](C)[C@@H]1NC(=O)[C@H](C2CC2)N(C)C(=O)C[C@@H](C(=O)N(C)CC)N(C)C(=O)[C@H](C2CCCC2)N(C)C(=O)C2(CC(C)(C)C2)NC(=O)[C@@H]2C[C@H](C)CN2C(=O)[C@H](CCc2cc(F)c(C(F)(F)F)c(F)c2)NC(=O)CN(C)C(=O)[C@H](Cc2ccc(C(F)(F)F)cc2)N2CC/C=C\C[C@@H](C2=O)N(C)C(=O)CN(C)C1=O` [PP1980], for which the “HRAS/KRAS (ratio of KD value for HRAS to KD value for KRAS)” value in assay [1] is “B (a compound having 3 or more and less than 10 is denoted as B)”. In addition, the “NRAS/KRAS (ratio of KD value for NRAS to KD value for KRAS)” value in assay [2] was “A (a compound having 10 or more and less than 20 is denoted as A)”.

For `CCO[C@@H]1C[C@H]2C(=O)NC3(CC(C)(C)C3)C(=O)N(C)[C@@H](C3CCCC3)C(=O)N(C)[C@H](C(=O)N(C)CC)CC(=O)N(C)[C@@H](C3CC3)C(=O)N[C@@H]([C@@H](C)CC)C(=O)N(C)CC(=O)N(C)[C@H]3C/C=C\CCN(C3=O)[C@@H](Cc3ccc(C(F)(F)F)cc3)C(=O)N(C)CC(=O)N[C@@H](CCc3ccc(C(F)(F)F)c(OC)c3)C(=O)N2C1` [PP1981], the “HRAS/KRAS (ratio of KD value for HRAS to KD value for KRAS)” value in assay [1] was “A (a compound having 10 or more and less than 20 is denoted as A)”. Also, the “NRAS/KRAS (ratio of KD value for NRAS to KD value for KRAS)” value in assay [2] is “A (a compound having 10 or more and less than 20 is denoted as A)”.

Take `CCCN(C)C(=O)[C@@H]1CC(=O)N(C)[C@@H](C2CC2)C(=O)N[C@@H]([C@@H](C)CC)C(=O)N(C)CC(=O)N(C)[C@H]2C/C=C\CCN(C2=O)[C@@H](Cc2ccc(C(F)(F)F)cc2)C(=O)N(C)CC(=O)N[C@@H](CCc2ccc(C(F)(F)F)c(OC)c2)C(=O)N2C[C@H](OCC)C[C@H]2C(=O)NC2(CC(C)(C)C2)C(=O)N(C)[C@@H](C2CCCC2)C(=O)N1C` [PP1983]: the “HRAS/KRAS (ratio of KD value for HRAS to KD value for KRAS)” value in assay [1] is “A (a compound having 10 or more and less than 20 is denoted as A)”. Besides, the “NRAS/KRAS (ratio of KD value for NRAS to KD value for KRAS)” value in assay [2] was “AA (a compound having 20 or more is denoted as AA)”.

With `CC[C@H](C)[C@@H]1NC(=O)[C@H](C2CCC2)N(C)C(=O)C[C@@H](C(=O)N(C)CC)N(C)C(=O)[C@H](C2CCCC2)N(C)C(=O)C2(CC(C)(C)C2)NC(=O)[C@@H]2C[C@H](C)CN2C(=O)[C@H](CCc2cc(F)c(C(F)(F)F)c(F)c2)NC(=O)CN(C)C(=O)[C@H](Cc2ccc(C(F)(F)F)cc2)N2CC/C=C\C[C@@H](C2=O)N(C)C(=O)CN(C)C1=O` [PP1984], the “HRAS/KRAS (ratio of KD value for HRAS to KD value for KRAS)” value in assay [1] was “A (a compound having 10 or more and less than 20 is denoted as A)”. The “NRAS/KRAS (ratio of KD value for NRAS to KD value for KRAS)” value in assay [2] is “A (a compound having 10 or more and less than 20 is denoted as A)”.

`CCO[C@@H]1C[C@H]2C(=O)NC3(CC(C)(C)C3)C(=O)N(C)[C@@H](C3CCCC3)C(=O)N(C)[C@H](C(=O)N(C)C)CC(=O)N(C)[C@@H](C3CCC3)C(=O)N[C@@H]([C@@H](C)CC)C(=O)N(C)CC(=O)N(C)[C@H]3C/C=C\CCN(C3=O)[C@@H](Cc3ccc(C(F)(F)F)cc3)C(=O)N(C)CC(=O)N[C@@H](CCc3ccc(C(F)(F)F)c(OC)c3)C(=O)N2C1` [PP1987]: in assay [1], the “HRAS/KRAS (ratio of KD value for HRAS to KD value for KRAS)” value was “A (a compound having 10 or more and less than 20 is denoted as A)”. Moreover, in assay [2], the “NRAS/KRAS (ratio of KD value for NRAS to KD value for KRAS)” value is “A (a compound having 10 or more and less than 20 is denoted as A)”.

As for `CCCN(C)C(=O)[C@@H]1CC(=O)N(C)[C@@H](COCC)C(=O)N[C@@H]([C@@H](C)CC)C(=O)N(C)CC(=O)N(C)[C@H]2C/C=C\CCN(C2=O)[C@@H](Cc2ccc(C(F)(F)F)cc2)C(=O)N(C)CC(=O)N[C@@H](CCc2cc(F)c(C(F)(F)F)c(F)c2)C(=O)N2C[C@H](OCC)C[C@H]2C(=O)NC2(CCC2)C(=O)N(C)[C@@H](C2CCCC2)C(=O)N1C` [PP1988], the “HRAS/KRAS (ratio of KD value for HRAS to KD value for KRAS)” value in assay [1] was “A (a compound having 10 or more and less than 20 is denoted as A)”. Besides, the “NRAS/KRAS (ratio of KD value for NRAS to KD value for KRAS)” value in assay [2] is “A (a compound having 10 or more and less than 20 is denoted as A)”.
